# Assay results reported in patent publication US12037344B2, “NLRP3 modulators” (INNATE TUMOR IMMUNITY, INC., priority 2018, dated 2024).
# Read-outs that look alike come from different tables or passages of the source.
# How the values were obtained:
# TLR7 = target: T1, TLR7 (Homo sapiens, UniProt Q9NYK1); test: In vitro human TLR7 binding reporter assay (HEK-Blue, NF-kB/AP1-inducible SEAP); assay type: cell-based; settings: read-out: TLR7 Agonist EC50
# T1 construct: human HEK-Blue cells co-expressing a TLR7 or TLR8 gene
# T1 sequence (Q9NYK1 27-1049): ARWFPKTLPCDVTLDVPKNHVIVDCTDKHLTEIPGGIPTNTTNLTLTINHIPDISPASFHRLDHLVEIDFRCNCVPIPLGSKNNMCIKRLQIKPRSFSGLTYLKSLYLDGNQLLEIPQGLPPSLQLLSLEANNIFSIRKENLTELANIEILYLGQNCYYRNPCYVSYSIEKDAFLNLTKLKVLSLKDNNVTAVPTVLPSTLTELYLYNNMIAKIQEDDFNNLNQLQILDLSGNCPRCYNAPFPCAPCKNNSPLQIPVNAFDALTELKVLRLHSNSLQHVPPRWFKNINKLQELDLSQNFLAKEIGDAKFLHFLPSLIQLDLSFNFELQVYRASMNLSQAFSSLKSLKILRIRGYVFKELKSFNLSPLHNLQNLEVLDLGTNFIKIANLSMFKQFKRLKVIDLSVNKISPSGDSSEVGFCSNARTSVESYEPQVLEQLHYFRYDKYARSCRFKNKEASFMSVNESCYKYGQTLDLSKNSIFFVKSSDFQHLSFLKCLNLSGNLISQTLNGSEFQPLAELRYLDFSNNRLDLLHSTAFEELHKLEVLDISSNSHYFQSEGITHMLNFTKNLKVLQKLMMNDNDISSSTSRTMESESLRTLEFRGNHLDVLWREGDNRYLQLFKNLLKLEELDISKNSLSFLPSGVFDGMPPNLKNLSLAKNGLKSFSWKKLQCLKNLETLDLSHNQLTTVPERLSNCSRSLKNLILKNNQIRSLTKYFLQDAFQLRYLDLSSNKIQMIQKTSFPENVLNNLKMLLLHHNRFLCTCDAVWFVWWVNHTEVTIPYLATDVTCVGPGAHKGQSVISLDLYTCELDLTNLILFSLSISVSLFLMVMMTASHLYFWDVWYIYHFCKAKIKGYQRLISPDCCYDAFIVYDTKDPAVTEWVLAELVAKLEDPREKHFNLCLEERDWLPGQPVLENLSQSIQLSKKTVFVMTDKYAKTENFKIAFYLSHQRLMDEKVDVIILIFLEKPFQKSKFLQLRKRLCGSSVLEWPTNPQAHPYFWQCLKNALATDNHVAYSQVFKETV
# Method in brief: (§1)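 Cells are seeded and grown for 24 h. Compounds or DMSO are then added and incubated 18 h at 37 °C. Quanti-Blue is added, and SEAP is read after thirty minutes. EC50 values are normalized, with RLU from 50 μM reference standard setting 100% Ymax.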
# THP-1 cells = test: Measurement of IL-1β production, hTRF protocol (second alternative procedure), THP-1 cells; assay type: cell-based, human
# Method in brief: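 Compounds, dilution series starting at a final 10 μM, were incubated 2 hours at 37° C with PMA-differentiated THP-1 cells (50 ng/ml overnight; 50,000 cells/well, 2% FBS RPMI). Released IL-1β quantified in supernatant by hTRF kit with 1:40 antibody dilution, 4° C overnight, 665/615 nm ratio.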
# TLR8 = target: T2, TLR8 (Homo sapiens, UniProt Q9NR97); test: In vitro human TLR8 binding reporter assay (HEK-Blue, NF-kB/AP1-inducible SEAP); assay type: cell-based; settings: read-out: TLR8 Agonist EC50
# T2 construct: human HEK-Blue cells co-expressing a TLR7 or TLR8 gene
# T2 sequence (Q9NR97 27-1041): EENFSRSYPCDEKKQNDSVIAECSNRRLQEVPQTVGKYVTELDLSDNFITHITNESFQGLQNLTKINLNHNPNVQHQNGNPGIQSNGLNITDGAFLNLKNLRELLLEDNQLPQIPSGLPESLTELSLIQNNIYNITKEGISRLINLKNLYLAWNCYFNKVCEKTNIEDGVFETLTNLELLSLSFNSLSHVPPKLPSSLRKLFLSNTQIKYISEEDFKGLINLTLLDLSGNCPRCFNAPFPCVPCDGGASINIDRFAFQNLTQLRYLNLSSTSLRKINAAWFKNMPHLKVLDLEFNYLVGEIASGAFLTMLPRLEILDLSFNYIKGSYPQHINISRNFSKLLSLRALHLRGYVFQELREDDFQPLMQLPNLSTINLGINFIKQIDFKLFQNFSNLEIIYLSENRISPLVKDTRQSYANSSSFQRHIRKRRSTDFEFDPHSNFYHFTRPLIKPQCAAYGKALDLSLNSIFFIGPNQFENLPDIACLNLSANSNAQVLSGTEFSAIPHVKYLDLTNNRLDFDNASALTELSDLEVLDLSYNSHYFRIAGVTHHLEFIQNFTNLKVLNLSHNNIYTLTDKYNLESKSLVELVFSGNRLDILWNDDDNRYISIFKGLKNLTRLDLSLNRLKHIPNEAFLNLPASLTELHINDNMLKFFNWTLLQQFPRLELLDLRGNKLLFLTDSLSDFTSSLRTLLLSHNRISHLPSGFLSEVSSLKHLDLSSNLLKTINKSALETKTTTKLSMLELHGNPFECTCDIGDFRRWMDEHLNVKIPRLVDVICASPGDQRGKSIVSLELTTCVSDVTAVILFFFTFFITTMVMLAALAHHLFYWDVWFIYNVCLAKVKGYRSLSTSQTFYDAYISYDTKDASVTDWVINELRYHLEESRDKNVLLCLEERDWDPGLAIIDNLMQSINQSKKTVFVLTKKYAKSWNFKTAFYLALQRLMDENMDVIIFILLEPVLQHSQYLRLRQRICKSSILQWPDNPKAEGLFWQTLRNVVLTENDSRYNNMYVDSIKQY
# Method in brief: as §1
# [1] = Homo sapiens, THP-1, IL-1β production, human, read-out: NLRP3 hILIB EC50
# [2] = Homo sapiens, THP-1, IL-1β production, human cells, read-out: NLRP3 hILIB EC50
SMILES,EC50 (TLR7; activity range class) [µM],EC50 (THP-1 cells; [1]) [µM],EC50 (TLR8; activity range class) [µM],EC50 (TLR7; activity range) [µM],EC50 (THP-1 cells; [2]) [µM],EC50 (TLR8; activity range) [µM],"EC50 (THP-1 cells; IL-1β production, human, read-out: NLRP3 hILIB EC50) [µM]","EC50 (THP-1 cells; Homo sapiens, THP-1, read-out: NLRP3 hILIB EC50) [µM]"
CC(=O)NCCn1cc2c(N)nc3cc(-c4cc[nH]n4)ccc3c2n1 [Example 290],> 100,0.87,> 100,,,,,
CCNC(=O)Cn1cc2c(n1)c(N)nc1cc(-n3cccn3)ccc12 [Example 19],20 to 100,3.88,20 to 100,,,,,
"CN(C)Cc1nc2c(N)nc3cc(-c4ccn[nH]4)ccc3c2o1 [Example 145, 2-[(dimethylamino)methyl]-7-(1H-pyrazol-5-yl)-[1,3]oxazolo[4,5-c]quinolin-4-amine]",> 100,2.74,> 100,,,,,
Nc1nc2cc(-c3cc[nH]n3)ccc2c2[nH]c(CN3C[C@H]4CC[C@@H](C3)O4)cc12 [Example 473],,,,> 100,0.49,> 100,,
CCN1CCCC1Cn1cc2c(N)nc3cc(-c4ccn[nH]4)ccc3c2n1 (stereo not drawn) [Example 274],> 100,0.6,> 100,,,,,
"Nc1nc2cc(-c3cc[nH]n3)ccc2c2nn(C3CCCCC3O)cc12 (single isomer, unassigned) [Example 319]",> 100,,> 100,,,,1.13,
Nc1nc2cc(-c3cc[nH]n3)ccc2c2cn(CCNC(=O)c3ccc(OCc4ccccc4)cn3)nc12 [Example 58],> 100,0.3,1 to 20,,,,,
CC(=O)N1CCN(CCn2cc3c(N)nc4cc(-c5ccn[nH]5)ccc4c3n2)CC1 [Example 276],> 100,31.7,> 100,,,,,
CCNCc1cc2c(N)nc3cc(-c4cc[nH]n4)ccc3c2[nH]1 [Example 420],,,,> 100,0.51,> 100,,
CC(C(=O)N1CC[C@H](C#N)C1)n1cc2c(N)nc3cc(-c4ccn[nH]4)ccc3c2n1 (stereo partly drawn) [Example 580],,,,> 100,20.1,> 100,,
CN(C)C(=O)C1(Cn2cc3c(N)nc4cc(-c5ccn[nH]5)ccc4c3n2)CC1 [Example 600],,,,> 100,3.99,> 100,,
Nc1nc2cc(-c3cc[nH]n3)ccc2c2nn(CCN3CCCC3)cc12 [Example 304],> 100,0.66,> 100,,,,,
Nc1nc2cc(-c3cc[nH]n3)ccc2c2cn(CCNC(=O)c3ccccc3)nc12 [Example 36],20 to 100,1.38,> 100,,,,,
CNC(=O)CCn1cc2c(n1)c(N)nc1cc(-c3cc[nH]n3)ccc12 [Example 535],,,,> 100,0.96,> 100,,
COCCn1nc2c(N)nc3cc(-c4ccn[nH]4)ccc3c2n1 [Example 162],> 100,1.22,> 100,,,,,
Cc1nnc(Cn2ncc3c(N)nc4cc(-c5cc[nH]n5)ccc4c32)o1 [Example 244],> 100,1.8,> 100,,,,,
Nc1nc2cc(-c3cc[nH]n3)ccc2c2c1cnn2CCCN1CCOCC1 [Example 214],> 100,4.55,> 100,,,,,

SMILES,EC50 (TLR7; activity range class) [µM],EC50 (THP-1 cells; [1]) [µM],EC50 (TLR8; activity range class) [µM],EC50 (TLR7; activity range) [µM],EC50 (THP-1 cells; [2]) [µM],EC50 (TLR8; activity range) [µM],"EC50 (THP-1 cells; IL-1β production, human, read-out: NLRP3 hILIB EC50) [µM]","EC50 (THP-1 cells; Homo sapiens, THP-1, read-out: NLRP3 hILIB EC50) [µM]"
COc1ccc(C(=O)NCCn2cc3c(n2)c(N)nc2cc(-c4cc[nH]n4)ccc23)nc1 [Example 59],> 100,0.47,> 100,,,,,
Nc1nc2cc(-c3cc[nH]n3)ccc2c2nn(Cc3cc[nH]n3)cc12 [Example 357],> 100,0.19,> 100,,,,,
N#CCCCCn1cc2c(N)nc3cc(-c4cc[nH]n4)ccc3c2n1 [Example 460],,,,> 100,0.2,> 100,,
"Nc1nc2cc(-c3ccn[nH]3)ccc2c2sc(CCCOCc3ccccc3)nc12 [Example 141, 2-[3-(benzyloxy)propyl]-7-(1H-pyrazol-3-yl)-[1,3]thiazolo[4,5-c]quinolin-4-amine]",> 100,6.28,≤ 1,,,,,
Nc1nc2cc(-c3cc[nH]n3)ccc2c2cn(CC(=O)N3CC(F)(F)C3)nc12 [Example 545],,,,> 100,1.79,> 100,,
"CCOCCn1cc2c(n1)c(N)nc1cc(-n3cccn3)ccc12 [Example 10, 2-(2-ethoxyethyl)-7-(1H-pyrazol-1-yl)-2H-pyrazolo[3,4-c]quinolin-4-amine]",20 to 100,1,1 to 20,,,,,
CC(C)C(O)Cn1cc2c(N)nc3cc(-c4cc[nH]n4)ccc3c2n1 (stereo not drawn) [Example 374],> 100,0.65,> 100,,,,,
Nc1nc2cc(-c3cc[nH]n3)ccc2c2c1cnn2CCN1CCOCC1 [Example 436],,,,> 100,2.75,> 100,,
CC(C(=O)N1CCC1)n1cc2c(N)nc3cc(-c4ccn[nH]4)ccc3c2n1 (stereo not drawn) [Example 576],,,,> 100,1.61,> 100,,
Nc1nc2cc(-c3cc[nH]n3)ccc2c2cn(CC(=O)NCC(F)F)nc12 [Example 538],,,,> 100,0.6,> 100,,
CN(CCO)C(=O)Cn1cc2c(n1)c(N)nc1cc(-c3cc[nH]n3)ccc12 [Example 547],,,,> 100,5.3,> 100,,
Nc1nc2cc(-c3cc[nH]n3)ccc2c2cn(CCNC(=O)c3cccc(Cl)n3)nc12 [Example 60],> 100,0.27,> 100,,,,,
Nc1nc2cc(-n3cccn3)ccc2c2cn(CC3CCCCO3)nc12 (stereo not drawn) [Example 18],20 to 100,1.13,> 100,,,,,
CC(C(=O)N1CC(C)(O)C1)n1cc2c(N)nc3cc(-c4ccn[nH]4)ccc3c2n1 (stereo not drawn) [Example 578],,,,> 100,18.6,> 100,,
"Nc1nc2cc(-c3ccn[nH]3)ccc2c2oc(CCCO)nc12 [Example 147, 3-[4-amino-7-(1H-pyrazol-3-yl)-[1,3]oxazolo[4,5-c]quinolin-2-yl]propan-1-ol]",> 100,,> 100,,,,,6.09
Nc1nc2cc(-c3cc[nH]n3)ccc2c2cn(CCNC(=O)c3nccs3)nc12 [Example 97],> 100,0.23,> 100,,,,,
Cc1ccc(C(=O)NCCn2cc3c(n2)c(N)nc2cc(-c4cc[nH]n4)ccc23)cc1 [Example 41],> 100,0.8,> 100,,,,,
